How the values were obtained:
NZBWF1/J mice = assay: Alpelisib in NZBWF1/J mice, model of lymphoproliferative disorders (spleen size, splenocyte flow cytometry); format: in vivo, mouse; details: female NZBWF1/J mice aged 24 weeks, 4 weeks treatment, vs vehicle
Description: (§1) Inventors have first investigated the impact of PIK3CA inhibition in NZBWF1/J mice a model of lymphoproliferative disorders. They randomly assigned 30 females aged of 24 weeks to receive either vehicle (n=15) or alpelisib (n=15) during 4 weeks. At the end of the treatment period, mice were sacrificed and flow cytometry was performed in splenocytes.
(§2) FIG. 1: Alpelisib improves lymphoproliferative mouse models. A. Spleen to body weight ratio at the time of sacrifice (4 weeks following treatment either with vehicle or alpelisib) (n=5-15 mice per group). B-F. Percentage of spleen cell population determined by flow cytometry analysis in NZBWF1/J mice treated with either vehicle or alpelisib. Spleen to body weight ratio of MRL-lpr mice treated either with vehicle or alpelisib for 4 weeks (n=14 mice per group). Percentage of peripheral blood monuclear cell (PBMC), bone marrow, spleen and lymph nodes cell population determined by flow cytometry analysis in MRL-lpr mice treated with either vehicle or alpelisib for 4 weeks (n=8-9 mice per group). CD4, CD8, B220, Mac1, Gr1 are used as lineage markers.
as §1, with “We” for “Inventors have”, “We” for “They”

[1] = tested on: MRL/MpJ-Faslpr/J mice (MRL-lpr); assay: Alpelisib in MRL/MpJ-Faslpr/J (MRL-lpr) mice, model of lymphoproliferative disorder (spleen and lymph node size, flow cytometry); format: in vivo, mouse; details: 4 weeks
Description: (§3) They then decided to explore the relevance of alpelisib in MRL/MpJ-Faslpr/J mice (referred here as MRL-lpr), another mouse model of lymphoproliferative disorder. These mice with homozygous Fas mutation usually develop severe lymphadenoproliferation. Female mice die at an average of 18-20 weeks old. They first randomly assigned to either vehicle or alpelisib MRL-lpr female mice at 8 weeks old, before they fully develop diseases.
as §2
FIG. 2: Alpelisib modifies mononuclear cell population in MRL-lpr mice. Flow cytometry analysis of bone marrow, spleen, lymph nodes, and PBMC in MRL-lpr mice treated either with vehicle or alpelisib for 4 weeks (n=8-9 mice per group). CD4, CD8, B220, Mac1, Gr1 are used as lineage markers.
as §3, with “We” for “They”

PROS patients = PROS patients in poor condition; earlier work told in the background; cited from earlier work
[2] = MRL-lpr mice, PBMC, lymph nodes and spleen
[3] = female MRL-lpr mice treated from 8 weeks old, at sacrifice, vs vehicle

**Q.** For `Cc1nc(NC(=O)N2CCC[C@H]2C(N)=O)sc1-c1ccnc(C(C)(C)C(F)(F)F)c1` [alpelisib], which “spleen size (spleen to body weight ratio, FIG. 1A)” value (NZBWF1/J mice; at sacrifice) is on record?
**A.** Its value is “significantly reduced”.

**Q.** And the “B cells (flow cytometry in splenocytes)” value (NZBWF1/J mice; spleen)?
**A.** Its value is “significantly reduced”.

**Q.** And the “CD8 cells count (flow cytometry in splenocytes)” value (NZBWF1/J mice; spleen)?
**A.** Its value is “corrected”.

**Q.** And the “B cells (flow cytometry)” value [1, 2]?
**A.** The value was “correction”.

**Q.** And the “T cells (flow cytometry)” value [1, 2]?
**A.** The value was “correction”.

**Q.** And the “other immune cells (flow cytometry)” value [1, 2]?
**A.** Its value is “correction”.

**Q.** What about the lymph node size [1, 3] of the same molecule?
**A.** Its lymph node size is “reduction”.

**Q.** What about the spleen size [1, 3] of the same molecule?
**A.** Its spleen size is “reduction”.

**Q.** And the “clinical, biological and radiological outcome” value (PROS patients)?
**A.** The value was “clinical, biological and radiological improvements”.

From patent US20260060969A1, “METHODS FOR THE TREATMENT OF LYMPHOPROLIFERATIVE DISORDERS” (INSTITUT NATIONAL DE LA SANTÉ ET DE LA RECHERCHE MÉDICALE, priority 2022, published 2026)
